Consider five compounds from ChEMBL document CHEMBL5465560, “Selectivity Literature for EUbOPEN Chemogenomic Library” (2024).

The structures appear in SMILES notation.

Assay [1] concerns the target T1, Protein kinase C epsilon type (Homo sapiens) (UniProt Q02156).
T1 sequence (whole entry): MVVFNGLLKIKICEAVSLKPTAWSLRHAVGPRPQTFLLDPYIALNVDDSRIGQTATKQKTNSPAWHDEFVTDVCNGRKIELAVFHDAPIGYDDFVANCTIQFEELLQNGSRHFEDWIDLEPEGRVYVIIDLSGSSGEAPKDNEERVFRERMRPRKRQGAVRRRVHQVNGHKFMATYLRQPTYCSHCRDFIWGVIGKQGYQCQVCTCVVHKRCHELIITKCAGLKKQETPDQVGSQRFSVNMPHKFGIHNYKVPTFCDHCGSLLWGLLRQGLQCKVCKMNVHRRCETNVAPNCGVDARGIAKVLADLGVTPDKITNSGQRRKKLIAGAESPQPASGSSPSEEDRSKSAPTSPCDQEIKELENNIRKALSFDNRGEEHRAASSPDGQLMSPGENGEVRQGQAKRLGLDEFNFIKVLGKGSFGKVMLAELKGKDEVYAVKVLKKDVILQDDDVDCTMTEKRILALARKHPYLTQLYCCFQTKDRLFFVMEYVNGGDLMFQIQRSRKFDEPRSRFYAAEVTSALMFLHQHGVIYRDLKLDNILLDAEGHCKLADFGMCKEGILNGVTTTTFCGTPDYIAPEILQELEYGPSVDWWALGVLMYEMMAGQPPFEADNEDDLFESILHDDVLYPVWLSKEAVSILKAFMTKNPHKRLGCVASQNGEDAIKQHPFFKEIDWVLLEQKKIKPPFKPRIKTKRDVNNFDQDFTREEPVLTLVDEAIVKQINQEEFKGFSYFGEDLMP
As to the kind of experiment: Selectivity interaction (KinomeScan (DiscoverX)) EUB0000695a PRKCE. To be noted: at 100 nM.

In assay [2] the test system is Hepatocyte growth factor receptor (Homo sapiens), P08581 [M1250T]. Description: (§1) Selectivity interaction (KinomeScan (DiscoverX)) EUB0000666a MET. To be noted: at 10 µM.
The subject of assay [3] is Hepatocyte growth factor receptor (Homo sapiens), P08581 [Y1235D]. The assay is described as §1. To be noted: at 10 µM.
The target of assay [4] is T2, Serine/threonine-protein kinase ULK1 (Homo sapiens) (UniProt O75385).
T2 sequence (whole entry): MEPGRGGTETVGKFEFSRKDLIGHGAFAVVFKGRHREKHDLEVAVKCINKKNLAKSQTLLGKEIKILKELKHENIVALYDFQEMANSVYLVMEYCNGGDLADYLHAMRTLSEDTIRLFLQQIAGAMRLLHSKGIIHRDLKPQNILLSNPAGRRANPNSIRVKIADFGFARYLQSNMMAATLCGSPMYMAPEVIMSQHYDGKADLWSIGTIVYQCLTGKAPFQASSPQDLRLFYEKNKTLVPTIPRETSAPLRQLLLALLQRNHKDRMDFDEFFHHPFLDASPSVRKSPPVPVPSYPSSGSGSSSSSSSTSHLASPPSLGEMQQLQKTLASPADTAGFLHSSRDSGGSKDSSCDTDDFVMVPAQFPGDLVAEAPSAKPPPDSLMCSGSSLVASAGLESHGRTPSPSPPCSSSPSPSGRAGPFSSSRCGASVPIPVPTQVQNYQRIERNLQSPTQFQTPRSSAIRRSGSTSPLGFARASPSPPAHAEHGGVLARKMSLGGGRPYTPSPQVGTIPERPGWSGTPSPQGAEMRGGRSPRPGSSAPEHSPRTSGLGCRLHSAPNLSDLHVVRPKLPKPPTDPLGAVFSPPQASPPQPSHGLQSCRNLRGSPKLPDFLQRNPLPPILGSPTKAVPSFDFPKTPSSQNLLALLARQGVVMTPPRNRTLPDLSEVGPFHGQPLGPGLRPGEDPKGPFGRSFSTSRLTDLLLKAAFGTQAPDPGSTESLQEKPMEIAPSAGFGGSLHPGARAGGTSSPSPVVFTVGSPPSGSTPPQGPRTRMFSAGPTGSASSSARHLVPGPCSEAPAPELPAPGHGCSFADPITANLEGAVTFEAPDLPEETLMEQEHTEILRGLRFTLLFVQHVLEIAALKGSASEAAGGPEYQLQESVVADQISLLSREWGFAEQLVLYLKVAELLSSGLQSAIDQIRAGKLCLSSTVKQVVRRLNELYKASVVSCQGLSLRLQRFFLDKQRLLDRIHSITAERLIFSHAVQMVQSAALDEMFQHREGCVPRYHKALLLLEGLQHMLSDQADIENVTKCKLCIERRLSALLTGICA
Description: Selectivity interaction (KinomeScan (DiscoverX)) EUB0000655a ULK1. To be noted: at 10 µM.

Assay [5] has as its target T3, Serine/threonine-protein kinase Nek2 (Homo sapiens) (UniProt P51955).
T3 sequence (whole entry): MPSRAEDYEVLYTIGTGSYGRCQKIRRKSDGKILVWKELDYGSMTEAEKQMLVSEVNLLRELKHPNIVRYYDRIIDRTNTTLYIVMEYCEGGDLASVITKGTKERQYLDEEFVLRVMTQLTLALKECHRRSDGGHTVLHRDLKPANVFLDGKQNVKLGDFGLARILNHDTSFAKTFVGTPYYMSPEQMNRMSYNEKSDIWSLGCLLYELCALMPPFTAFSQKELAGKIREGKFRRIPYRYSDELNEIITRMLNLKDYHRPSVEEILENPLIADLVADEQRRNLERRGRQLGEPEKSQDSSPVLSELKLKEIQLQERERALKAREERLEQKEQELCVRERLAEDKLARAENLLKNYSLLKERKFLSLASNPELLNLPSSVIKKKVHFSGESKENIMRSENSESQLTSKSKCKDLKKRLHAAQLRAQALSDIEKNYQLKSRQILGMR
Description: Selectivity interaction (KinomeScan (DiscoverX)) EUB0000618a NEK2. To be noted: at 10 µM.

Assay [6] addresses T4, Calcium/calmodulin-dependent protein kinase type IV (Homo sapiens) (UniProt Q16566).
T4 sequence (whole entry): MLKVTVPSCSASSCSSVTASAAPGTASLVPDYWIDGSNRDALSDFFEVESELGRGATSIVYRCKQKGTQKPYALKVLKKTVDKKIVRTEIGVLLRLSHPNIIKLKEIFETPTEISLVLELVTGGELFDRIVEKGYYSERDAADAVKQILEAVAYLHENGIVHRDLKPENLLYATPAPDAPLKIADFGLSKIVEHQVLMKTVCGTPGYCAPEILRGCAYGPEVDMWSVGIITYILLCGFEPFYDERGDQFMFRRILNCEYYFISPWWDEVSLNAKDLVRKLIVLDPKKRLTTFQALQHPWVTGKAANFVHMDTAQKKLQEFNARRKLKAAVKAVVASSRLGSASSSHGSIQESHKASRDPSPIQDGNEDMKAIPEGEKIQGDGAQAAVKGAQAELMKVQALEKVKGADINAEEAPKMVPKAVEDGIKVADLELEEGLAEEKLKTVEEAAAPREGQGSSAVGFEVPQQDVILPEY
As to the kind of experiment: Selectivity interaction (KinomeScan (DiscoverX)) EUB0001079a CAMK4. To be noted: at 1 µM.

Hepatocyte growth factor receptor (Homo sapiens), P08581 [Y1235D], sequence (P08581 whole entry Y1235D): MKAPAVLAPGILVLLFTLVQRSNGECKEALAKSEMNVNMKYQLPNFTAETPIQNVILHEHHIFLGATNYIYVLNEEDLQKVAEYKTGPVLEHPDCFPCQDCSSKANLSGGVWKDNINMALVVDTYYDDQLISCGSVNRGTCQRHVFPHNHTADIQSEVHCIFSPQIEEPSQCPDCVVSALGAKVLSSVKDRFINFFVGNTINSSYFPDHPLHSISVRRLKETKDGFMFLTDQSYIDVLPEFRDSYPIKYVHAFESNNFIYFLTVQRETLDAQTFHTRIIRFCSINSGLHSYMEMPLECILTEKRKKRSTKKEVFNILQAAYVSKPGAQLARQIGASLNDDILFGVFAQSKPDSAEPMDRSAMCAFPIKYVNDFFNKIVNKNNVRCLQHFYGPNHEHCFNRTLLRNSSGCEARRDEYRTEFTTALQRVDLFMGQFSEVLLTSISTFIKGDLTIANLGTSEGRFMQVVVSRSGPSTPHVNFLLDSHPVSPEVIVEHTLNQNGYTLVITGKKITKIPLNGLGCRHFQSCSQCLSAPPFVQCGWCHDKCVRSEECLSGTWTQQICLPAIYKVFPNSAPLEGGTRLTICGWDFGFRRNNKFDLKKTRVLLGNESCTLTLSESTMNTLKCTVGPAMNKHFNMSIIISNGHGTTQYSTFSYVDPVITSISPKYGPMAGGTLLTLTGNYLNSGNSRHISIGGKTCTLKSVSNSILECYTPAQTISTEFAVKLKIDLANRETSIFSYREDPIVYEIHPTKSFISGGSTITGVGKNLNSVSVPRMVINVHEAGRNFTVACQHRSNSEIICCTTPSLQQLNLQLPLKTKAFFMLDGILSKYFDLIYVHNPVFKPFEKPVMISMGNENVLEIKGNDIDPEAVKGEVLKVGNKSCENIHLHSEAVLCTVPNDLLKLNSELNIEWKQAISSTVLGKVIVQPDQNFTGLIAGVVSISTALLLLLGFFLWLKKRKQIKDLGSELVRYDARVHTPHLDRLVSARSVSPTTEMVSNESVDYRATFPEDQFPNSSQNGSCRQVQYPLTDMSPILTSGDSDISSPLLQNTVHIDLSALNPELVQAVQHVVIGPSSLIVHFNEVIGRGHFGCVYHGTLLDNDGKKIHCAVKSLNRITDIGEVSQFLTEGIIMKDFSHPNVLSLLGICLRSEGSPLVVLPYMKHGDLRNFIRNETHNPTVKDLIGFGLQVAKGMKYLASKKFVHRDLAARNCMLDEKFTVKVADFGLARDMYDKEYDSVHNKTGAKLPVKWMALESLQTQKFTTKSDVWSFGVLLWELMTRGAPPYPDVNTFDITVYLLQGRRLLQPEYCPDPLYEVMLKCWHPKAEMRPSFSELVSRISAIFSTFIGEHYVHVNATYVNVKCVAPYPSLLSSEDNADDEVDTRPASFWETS
Hepatocyte growth factor receptor (Homo sapiens), P08581 [M1250T], sequence (P08581 whole entry M1250T): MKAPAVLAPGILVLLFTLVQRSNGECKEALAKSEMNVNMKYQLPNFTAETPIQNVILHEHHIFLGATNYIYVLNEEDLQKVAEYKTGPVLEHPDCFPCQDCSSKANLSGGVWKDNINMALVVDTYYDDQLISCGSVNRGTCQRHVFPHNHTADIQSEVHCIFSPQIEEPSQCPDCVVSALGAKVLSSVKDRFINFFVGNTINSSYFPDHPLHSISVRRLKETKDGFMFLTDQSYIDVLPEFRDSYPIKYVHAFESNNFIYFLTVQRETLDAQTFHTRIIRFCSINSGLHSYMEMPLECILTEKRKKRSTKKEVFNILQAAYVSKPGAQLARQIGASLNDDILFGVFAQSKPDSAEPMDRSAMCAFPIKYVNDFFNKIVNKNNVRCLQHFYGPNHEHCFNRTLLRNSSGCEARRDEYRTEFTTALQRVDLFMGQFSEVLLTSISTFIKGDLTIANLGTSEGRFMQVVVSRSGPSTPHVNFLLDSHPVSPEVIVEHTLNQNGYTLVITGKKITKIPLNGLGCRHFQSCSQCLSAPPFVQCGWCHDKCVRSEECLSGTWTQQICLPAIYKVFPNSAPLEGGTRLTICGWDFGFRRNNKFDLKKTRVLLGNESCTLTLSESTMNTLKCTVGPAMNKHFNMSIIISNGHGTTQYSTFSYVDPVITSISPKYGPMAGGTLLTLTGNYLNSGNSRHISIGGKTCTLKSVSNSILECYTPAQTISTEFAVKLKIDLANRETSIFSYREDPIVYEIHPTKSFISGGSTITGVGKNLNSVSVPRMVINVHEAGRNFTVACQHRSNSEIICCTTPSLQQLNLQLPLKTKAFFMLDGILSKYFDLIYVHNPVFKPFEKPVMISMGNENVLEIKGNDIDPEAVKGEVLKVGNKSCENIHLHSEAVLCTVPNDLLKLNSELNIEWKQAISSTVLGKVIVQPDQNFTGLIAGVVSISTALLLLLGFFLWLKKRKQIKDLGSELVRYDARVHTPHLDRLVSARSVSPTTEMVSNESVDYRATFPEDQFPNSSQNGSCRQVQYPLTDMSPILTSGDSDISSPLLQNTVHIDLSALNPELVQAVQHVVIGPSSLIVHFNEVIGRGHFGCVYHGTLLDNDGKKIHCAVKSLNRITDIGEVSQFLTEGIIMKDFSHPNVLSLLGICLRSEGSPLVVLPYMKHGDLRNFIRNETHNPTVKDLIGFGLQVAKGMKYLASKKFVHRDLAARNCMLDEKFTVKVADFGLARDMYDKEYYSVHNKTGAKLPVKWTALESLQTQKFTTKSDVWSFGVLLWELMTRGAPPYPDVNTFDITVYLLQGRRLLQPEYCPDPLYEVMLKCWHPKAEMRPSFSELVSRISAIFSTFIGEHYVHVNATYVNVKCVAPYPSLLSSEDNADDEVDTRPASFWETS

For `Cc1cc(F)c(C(=O)Nc2cccc(-c3nncn3C(C)C)n2)cc1-n1cnc(C2CC2)c1`, in assay [1], the % of control is 97%. Turning to `O=C(NOC[C@H](O)CO)c1ccc(F)c(F)c1Nc1ccc(I)cc1F`, the % of control was 92% in assay [2] and 100% in assay [3]. On to `CN(C)CCOc1ccc(-c2nc(-c3ccncc3)c(-c3ccc4c(c3)CC/C4=N\O)[nH]2)cc1`, for which the % of control in assay [4] came out at 98%. Compound `O[C@H]1CC[C@H](Nc2ncc3nc(Nc4c(F)cc(F)cc4F)n([C@H]4CCOC4)c3n2)CC1` returned a % of control in assay [5] of 100%. `Nc1cnc(N2CCc3cc(S(=O)(=O)Nc4c(F)cc(Cl)cc4F)cc(N4CCCC4=O)c32)nc1` [TP-020n]: the % of control in assay [6] is 96%.
